Source: patent US20100233172A1, “METHODS OF INHIBITING QUIESCENT TUMOR PROLIFERATION” (Bristol-Myers Squibb Company, priority 2008, published 2010)
One block for each compound: values may come before it.

Tests used:
Protein phosphatase 1G = target: T1, Protein phosphatase 1G (Homo sapiens, UniProt O15355); experiment: Affinity capture on monomeric avidin, ALL cell fractions, MS peptide hits; assay type: binding
T1 construct: endogenous in cells; host or cells: ALL cells (quiescent), nuclear and cytoplasmic fractions
T1 sequence (O15355 1-546): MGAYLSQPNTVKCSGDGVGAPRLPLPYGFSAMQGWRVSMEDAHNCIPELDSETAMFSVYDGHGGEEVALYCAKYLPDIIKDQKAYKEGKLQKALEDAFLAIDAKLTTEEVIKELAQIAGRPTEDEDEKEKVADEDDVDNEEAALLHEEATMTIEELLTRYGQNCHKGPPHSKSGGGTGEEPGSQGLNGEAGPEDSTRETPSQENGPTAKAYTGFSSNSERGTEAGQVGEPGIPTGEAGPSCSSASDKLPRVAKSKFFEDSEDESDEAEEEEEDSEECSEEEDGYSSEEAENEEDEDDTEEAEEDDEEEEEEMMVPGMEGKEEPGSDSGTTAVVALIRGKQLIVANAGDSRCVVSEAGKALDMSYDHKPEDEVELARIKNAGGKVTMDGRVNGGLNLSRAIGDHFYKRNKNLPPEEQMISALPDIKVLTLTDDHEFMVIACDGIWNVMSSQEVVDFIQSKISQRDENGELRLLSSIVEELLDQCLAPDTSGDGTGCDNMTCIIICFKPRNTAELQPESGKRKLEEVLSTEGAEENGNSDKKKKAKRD
Procedure: (§1) An important first step was to establish a source of cells that grew to high density and could remain viable even without replenishing the medium, so that they would be quiescent (Q). After several trials, the inventors settled on ALL cells. Nuclear and cytoplamic fractions were separated by low speed centrifugation after cell lysis with mild detergent. The nuclear fractions were treated with 0.5 M KCl and the chromatin spun out at 100,000 g for one hour. The cytoplasmic fraction was also spun at 100,000 g for one hour, glycerol was added to 20% and fractions frozen at −80 C. […] The fractions were loaded onto 1 ml columns of monomeric avidin beads that had been pretreated with biotin to block accessible sites and washed with pH 2.8 glycine buffer and the incubation buffer (see FIG. 10). Proteins were eluted from both columns with buffer containing 2 mM biotin, 10% TCA precipitated and analyzed on polyacrylamide gels. Bands A and B from the 1 mm gel shown in FIG. 11 were excised out and submitted to the proteomics group for analysis.

[1] = target: T2, Stress induced-phosphoprotein 1 (Hsp70/Hsp90-organizing protein) (Homo sapiens, UniProt P31948); experiment: as above; assay type: binding
T2 construct: endogenous in cells; host or cells: ALL cells (quiescent), nuclear and cytoplasmic fractions
T2 sequence (P31948 whole entry): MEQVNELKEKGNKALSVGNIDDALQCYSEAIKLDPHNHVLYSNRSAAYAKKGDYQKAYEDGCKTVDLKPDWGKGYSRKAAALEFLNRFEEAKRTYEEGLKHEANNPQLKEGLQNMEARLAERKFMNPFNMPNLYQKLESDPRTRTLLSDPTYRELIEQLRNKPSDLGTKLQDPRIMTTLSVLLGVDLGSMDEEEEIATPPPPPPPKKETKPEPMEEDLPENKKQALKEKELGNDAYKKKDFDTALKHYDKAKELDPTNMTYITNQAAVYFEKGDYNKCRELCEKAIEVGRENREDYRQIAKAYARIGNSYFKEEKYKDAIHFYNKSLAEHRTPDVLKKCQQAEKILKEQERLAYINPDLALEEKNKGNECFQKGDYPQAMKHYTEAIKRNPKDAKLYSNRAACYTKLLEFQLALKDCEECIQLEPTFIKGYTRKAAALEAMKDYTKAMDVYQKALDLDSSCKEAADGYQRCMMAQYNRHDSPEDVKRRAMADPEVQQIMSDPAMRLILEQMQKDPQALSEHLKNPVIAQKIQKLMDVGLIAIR
Procedure: as §1

[2] = target: T3, Programmed cell death (AIF) (Homo sapiens, UniProt O95831); experiment: as above; assay type: binding
T3 construct: Two peptides were detected for AIF in band B of the BMS-844472 eluates that were absent from the control eluates; endogenous in cells; host or cells: ALL cells (quiescent), nuclear and cytoplasmic fractions
T3 sequence (O95831 102-613): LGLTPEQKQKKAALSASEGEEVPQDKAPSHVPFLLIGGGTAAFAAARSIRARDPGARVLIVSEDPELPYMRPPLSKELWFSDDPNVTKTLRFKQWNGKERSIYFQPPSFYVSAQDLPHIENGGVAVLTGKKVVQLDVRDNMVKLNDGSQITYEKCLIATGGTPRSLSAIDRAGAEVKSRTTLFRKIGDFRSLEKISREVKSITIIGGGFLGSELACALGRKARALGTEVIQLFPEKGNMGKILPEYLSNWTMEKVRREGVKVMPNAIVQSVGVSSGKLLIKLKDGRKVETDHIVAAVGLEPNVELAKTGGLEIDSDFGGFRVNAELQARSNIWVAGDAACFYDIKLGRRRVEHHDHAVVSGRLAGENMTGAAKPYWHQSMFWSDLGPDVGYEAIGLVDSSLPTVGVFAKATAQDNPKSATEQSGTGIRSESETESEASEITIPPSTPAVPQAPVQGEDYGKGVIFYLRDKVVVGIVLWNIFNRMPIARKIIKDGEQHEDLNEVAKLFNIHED
Procedure: as §1

HCT-116 cells [3] = experiment: Clonogenic assay, proliferating (P) versus quiescent (Q) cells; assay type: cell-based, human; conditions: for P/Q selectivity: ratio derived from the IC90s on HCT116 cells; for IC90: Homo sapiens, HCT-116, P cells, 16 hr treatment
Procedure: Tumor Cell Lines. […] Proliferating cultures were set up by plating 3×10^5 cells in 10 ml of RPMI medium in T75 flasks on day 0 and treated with compounds (dissolved in fresh medium) on day 2 or 3. Quiescent cultures were set up by plating 3×10^5 cells in 10 ml of RPMI media in T75 flasks on day 0, changing medium on day 2, and treated with drugs dissolved in spent media on day 6 for 17 hr.
Clonogenic Assay. […] After 10 days incubation at 37° C., colonies were stained with crystal violet.

FT = FT (Homo sapiens, UniProt P49354+P49356); experiment: Prenyltransferase enzyme assay, FT; assay type: biochemical
Procedure: (§2) Enzyme Assays. Prenyltransferases and H-Ras processing inhibition were carried out as described earlier (Hunt et al., Rose et al., Lackner et al., Manne et al., and Lombardo et al).

HCT116 xenografts = HCT116 xenografts in nude mice; assay type: in vivo; conditions: at MTD: 600 mg/kg; for Activity in vivo, cures: cures per mice
[4] = target: T4, Rab geranylgeranyl transferase (GGTII) (Homo sapiens, UniProt P53611+Q92696); experiment: Prenyltransferase enzyme assay, RabGGT; assay type: biochemical
T4 sequence (Q92696 1-567): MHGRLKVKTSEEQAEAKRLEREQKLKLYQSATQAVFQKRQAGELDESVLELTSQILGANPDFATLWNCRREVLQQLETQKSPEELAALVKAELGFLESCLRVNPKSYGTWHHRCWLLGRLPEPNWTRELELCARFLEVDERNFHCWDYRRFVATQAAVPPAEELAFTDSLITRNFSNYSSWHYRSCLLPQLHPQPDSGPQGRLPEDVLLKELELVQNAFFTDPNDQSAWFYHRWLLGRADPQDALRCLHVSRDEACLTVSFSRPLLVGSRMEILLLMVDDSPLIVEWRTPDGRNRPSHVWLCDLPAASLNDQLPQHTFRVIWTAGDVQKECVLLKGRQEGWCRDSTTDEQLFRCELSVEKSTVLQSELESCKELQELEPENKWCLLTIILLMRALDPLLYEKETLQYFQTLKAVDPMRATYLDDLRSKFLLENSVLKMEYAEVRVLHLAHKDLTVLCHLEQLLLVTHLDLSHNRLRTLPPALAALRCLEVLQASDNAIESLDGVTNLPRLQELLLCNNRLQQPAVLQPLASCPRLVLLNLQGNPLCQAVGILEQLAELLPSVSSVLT
T4 sequence (P53611 1-331): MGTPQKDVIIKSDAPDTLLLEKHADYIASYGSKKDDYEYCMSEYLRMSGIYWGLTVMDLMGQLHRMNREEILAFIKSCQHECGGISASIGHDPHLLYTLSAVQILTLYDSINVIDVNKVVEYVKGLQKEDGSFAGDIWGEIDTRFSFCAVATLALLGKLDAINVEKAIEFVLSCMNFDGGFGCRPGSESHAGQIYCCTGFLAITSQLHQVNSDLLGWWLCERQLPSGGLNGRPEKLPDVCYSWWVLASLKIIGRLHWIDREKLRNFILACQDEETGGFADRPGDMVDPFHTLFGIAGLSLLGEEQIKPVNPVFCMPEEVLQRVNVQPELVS
Procedure: as §2

[5] = target: geranylgeranyl transferase I (GGTI) (Homo sapiens, UniProt P49354+P53609); experiment: Prenyltransferase enzyme assay, GGTI; assay type: biochemical
Procedure: as §2

HCT/VM46 xenograft = experiment: HCT/VM46 multidrug resistant colon carcinoma xenograft; assay type: in vivo, mice
Excerpt: FIG. 5. […] Panel c. […] Therefore, the consistently observed synergy of the combinations is highly sequence dependent, in vitro and in vivo.

HCT-116 cells [6] = experiment: Flow cytometry of HCT-116 P and Q cells (BrdU, p85 PARP, activated caspase 3); assay type: cell-based, human
Procedure: Untreated HCT-116 cells in P or in Q state (Panel a) were analyzed by flow cytometry. The y axis represents cell numbers and the x axis DNA content. […] The x axis indicates the level of activated caspase while the y axis represents percentage of total fluorescence adjusted to 100%. […] The x axis indicates the level of BrdU incorporation, while the y axis indicates the p85 cleaved PARP cells.

[7] = test system: cross-linker site in HCT-116 quiescent cell extracts; experiment: Cross-linking competition with tritium labeled azido analogue BMS-540864; assay type: binding, human

Peptide Hits Exp 1 (Protein phosphatase 1G): 4
Peptide Hits Exp 2 (Protein phosphatase 1G): 1
Peptide Hits Exp 1 [1]: 15
Peptide Hits Exp 2 [1]: 18
Structure (SMILES): N#Cc1ccc2c(c1)CN(S(=O)(=O)CCCNC(=O)CCCCCNC(=O)CCCC[C@H]1SC[C@H]3NC(=O)N[C@H]31)CCN2Cc1cnc[nH]1 [BMS-236724]
Peptide Hits Exp 1 [2]: 3
Peptide Hits Exp 2 [2]: 5

Structure (SMILES): N#Cc1ccc2c(c1)CN(S(=O)(=O)c1ccccc1)[C@H](Cc1ccccc1)CN2Cc1cnc[nH]1 [BMS-212347]
P/Q selectivity (HCT-116 cells [3]): 47
IC50 (FT): 2.4 nM
Activity in vivo, cures (HCT116 xenografts): 7/8
IC50 [4]: 41 nM
IC50 [5]: 1200 nM

Structure (SMILES): Cn1cncc1CN1C[C@@H](Cc2ccccc2)N(S(=O)(=O)c2ccccc2)Cc2cc(C#N)ccc21 [BMS-223999]
IC50 (FT): 1.1 nM
Activity in vivo, LCK (log cell kill) when no cures were achieved (HCT116 xenografts): 0.4 LCK
Activity in vivo, cures (HCT116 xenografts): 0/8
IC50 [4]: 8 nM
IC50 [5]: 530 nM

IC90 (HCT-116 cells [3]): 17.8 nM
Q cell values (IC90) (HCT-116 cells [3]; Q cells): not reached
Structure (SMILES): CC(=O)O[C@H]1C(=O)[C@@]2(C)[C@H]([C@H](OC(=O)c3ccccc3)[C@]3(O)C[C@H](OC(=O)[C@H](O)[C@@H](NC(=O)c4ccccc4)c4ccccc4)C(C)=C1C3(C)C)[C@]1(OC(C)=O)CO[C@@H]1C[C@@H]2O [paclitaxel]

Structure (SMILES): O=c1[nH]cc(F)c(=O)[nH]1 [5-fluorouracil]
preferential cytotoxicity P versus Q (HCT-116 cells [3]): preferentially cytotoxic to P tumor cells

IC90 (HCT-116 cells [3]): 1.3 nM
Structure (SMILES): C/C(=C\c1csc(C)n1)[C@@H]1C[C@@H]2O[C@]2(C)CCC[C@H](C)[C@H](O)[C@@H](C)C(=O)C(C)(C)[C@@H](O)CC(=O)N1 [ixabepilone]
relative sensitivity of P versus Q cells (HCT-116 cells [3]; P cells more sensitive): > 83 fold
tumor cures (HCT/VM46 xenograft; cured mice of group): did not produce any tumor cures
tumor growth delay (HCT/VM46 xenograft; mouse, in vivo): 1.1 LCK

Structure (SMILES): NC(=O)N1CCC(CC(=O)N2CCC([C@H]3c4ncc(Br)cc4CCc4cc(Cl)cc(Br)c43)CC2)CC1 [SCH66336]
P/Q activity ratio (HCT-116 cells [3]): 0.74

Structure (SMILES): Cn1cncc1CN1C[C@@H](Cc2ccccc2)N(S(=O)(=O)c2cccs2)Cc2cc(C#N)ccc21 [BMS-225975]
P/Q activity ratio (HCT-116 cells [3]): 0.7
P/Q selectivity (HCT-116 cells [3]): 11-100 1.4
Activity in vivo, LCK (log cell kill) when no cures were achieved (HCT116 xenografts): 0.3 LCK
Activity in vivo, cures (HCT116 xenografts): 0/8
IC50 [4]: 12 nM
proapoptotic activity (HCT-116 cells [6]): does not induce apoptosis
IC50 [5]: 900 nM
competition for the cross-linker site [7]: able to compete

Structure (SMILES): Cn1cncc1[C@@](N)(c1ccc(Cl)cc1)c1ccc2c(c1)c(-c1cccc(Cl)c1)cc(=O)n2C [R-115777]
P/Q activity ratio (HCT-116 cells [3]): 0.83
